The first experiment concerns the target T1, NGT (Actinobacillus pleuropneumoniae serotype 5b, UniProt A3N2T3).
Experiment: not given
It counts as biochemical. As to conditions: 5 μM Im7 variant, 0.1 μM NGT, 2.5 mM UDP-Glc, 2.5 h, 30° C.
T1 sequence (A3N2T3 whole entry): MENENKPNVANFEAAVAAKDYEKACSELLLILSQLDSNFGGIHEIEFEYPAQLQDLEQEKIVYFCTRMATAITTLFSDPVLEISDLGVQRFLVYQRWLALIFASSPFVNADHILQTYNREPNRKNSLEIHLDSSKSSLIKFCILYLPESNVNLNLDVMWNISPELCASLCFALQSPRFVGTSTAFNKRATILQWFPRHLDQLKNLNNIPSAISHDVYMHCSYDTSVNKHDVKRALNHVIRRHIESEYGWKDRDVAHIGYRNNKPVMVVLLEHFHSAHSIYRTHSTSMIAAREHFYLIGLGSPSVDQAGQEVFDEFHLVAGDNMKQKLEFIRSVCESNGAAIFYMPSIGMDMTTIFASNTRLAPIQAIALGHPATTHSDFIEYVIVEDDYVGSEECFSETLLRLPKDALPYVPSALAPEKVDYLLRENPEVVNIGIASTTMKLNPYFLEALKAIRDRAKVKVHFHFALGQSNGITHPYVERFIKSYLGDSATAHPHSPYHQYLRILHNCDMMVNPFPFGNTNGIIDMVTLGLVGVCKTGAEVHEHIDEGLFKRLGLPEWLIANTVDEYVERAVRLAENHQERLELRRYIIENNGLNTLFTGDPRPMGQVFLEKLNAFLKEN
As for GGNWTT, the “glycosylation of Im7 variant” value is “most efficient modification within the Im7 protein”.

In the next experiment the target is T1, NGT.
Experiment: not given
Particulars: 50 μM peptide, 1 mM sugar donor, purified NGT, 30° C. It counts as biochemical.
For the compound `O=c1ccn([C@@H]2O[C@H](COP(=O)(O)OP(=O)(O)O[C@H]3OC[C@@H](O)[C@H](O)[C@H]3O)[C@@H](O)[C@H]2O)c(=O)[nH]1` [UDP-Xyl, UDP-xylose], the “efficiency of sugar transfer by NGT” value is listed as “much lower efficiencies”.

The target in the next experiment is T1, NGT.
Experiment: not given
As to conditions: BL21(DE3) E. coli; Fc induced 2 h, then NGT 30 min. It counts as cell-based.
Regarding GGNWTT, the “glycosylation of Fc variant in E. coli cytoplasm” value was “most efficient glycosylation”.

Still in this experiment, the particulars now being: GlycTag at Asn1366; HMW1ct induced 1 h, then NGT 2 h.
As to GGNWTT, the “modification of HMW1ct variant in E. coli cytoplasm” value is recorded as “highest modification”.

The target of another experiment is N-glycosyltransferase from Actinobacillus pleuropneumoniae (Actinobacillus pleuropneumoniae serotype 5b, UniProt A3N2T3). Put plainly: GlycoSCORES: peptide glycosylation by NGT, read by SAMDI-MS. It counts as biochemical. As to conditions: 50 μM peptide, 2.5 mM UDP-Glc, 0.5 μM purified NGT, 30° C., 3 h.
Sequence of N-glycosyltransferase from Actinobacillus pleuropneumoniae (A3N2T3 whole entry, the tested form may be a part): as the sequence (A3N2T3 whole entry) above
As to CNAT, the “glucose modification of truncated GSDQNATF peptides” value is given as “could be modified by NGT”. The same measure, in the same setting: as for QNATFC, the entry is “most efficient glucose modification”.

Staying with this experiment, now noted: 4-mer peptides, fraction modified (0-1).
As to INVT, the “MO[…]” value is 0.6893.

Take PNIT: the “MO[…]” value amounted to 0.9358. Still for that read-out and setting: then GNYT, with 0.5195; and NNVS, with 0.7147; and WNIT, with 0.9275.

As to PNIS, the “MO[…]” value is reported as 0.8821. Same read-out and setting: then TNAT, with 0.7761; and WNRT, with 0.6933. PNYT: the “MO[…]” value was determined as 0.8963. Same read-out and setting: as for NNRT, the figure is 0.7671. On the same count and under the same terms, as for TNVT, the figure is 0.9096; as for HNHS, 0.6747; as for PNVT, 0.9741. Same read-out and setting: then DNHT, with 0.7287.

With VNVT, the “MO[…]” value was found to be 0.8081. Still for that read-out and setting: as for ANYS, the figure is 0.6975; as for QNVT, 0.5056; as for ANYT, 0.91.

Consider ANRT, for which the “MO[…]” value is 0.8206.

As for ANMS, the “MO[…]” value was found to be 0.5336.

Turning to VNIT, the “MO[…]” value was 0.6873.

Turning to LNIT, the “MO[…]” value is recorded as 0.5288. Still for that read-out and setting: as for GNVS, the figure is 0.6117. Still for that read-out and setting: as for PNVS, the figure is 0.9374; as for SNHS, 0.5937; as for ANVT, 0.9844. Turning to ANVS, the “MO[…]” value turned out to be 0.9611. On the same count and under the same terms, as for ANLT, the figure is 0.6957. On the same count and under the same terms, as for PNYS, the figure is 0.6762. Still for that read-out and setting: then SNRT, with 0.6821; and ENVS, with 0.6584; and ANHS, with 0.6918. For PNHS, the “MO[…]” value came out at 0.6988. As to MNIT, the “MO[…]” value was 0.7393. Still for that read-out and setting: then PNTT, with 0.8532; and TNHS, with 0.5091. Same read-out and setting: as for ANAT, the figure is 0.9101. As for SNYT, the “MO[…]” value came to 0.6177. The same measure, in the same setting: then ENHT, with 0.7656; and ANST, with 0.7846; and PNLT, with 0.8254. For the compound MNAT, the “MO[…]” value came to 0.7903. On the same count and under the same terms, then HNVS, with 0.9185; and SNST, with 0.5156; and MNTT, with 0.5502. The same measure, in the same setting: then NNHS, with 0.6848; and SNVS, with 0.971; and ANFT, with 0.8633. Same read-out and setting: then SNTT, with 0.5496; and GNHT, with 0.7856; and PNRT, with 0.8662. SNVT: the “MO[…]” value is 0.9488.

As for PNAT, the “MO[…]” value came to 0.8919.

Regarding GNWS, the “MO[…]” value was determined as 0.72. On the same count and under the same terms, as for HNRT, the figure is 0.6962; as for HNIS, 0.704; as for HNIT, 0.8411. The same measure, in the same setting: then GNVT, with 0.8843; and WNHT, with 0.8335; and MNHS, with 0.6816.

As for MNVS, the “MO[…]” value is 0.9118.

For VNAT, the “MO[…]” value was determined as 0.6982.

With TNVS, the “MO[…]” value turned out to be 0.8695. The same measure, in the same setting: as for PNMT, the figure is 0.8399; as for SNHT, 0.906; as for NNHT, 0.8624. Same read-out and setting: then ANTT, with 0.7872. For PNST, the “MO[…]” value is 0.8271. Still for that read-out and setting: then PNMS, with 0.636; and DNVT, with 0.5073. On the same count and under the same terms, then ENVT, with 0.8903. As to MNHT, the “MO[…]” value is 0.855. On the same count and under the same terms, as for MNMT, the figure is 0.5547; as for ENRT, 0.7271; as for HNAT, 0.7427. The same measure, in the same setting: as for TNHT, the figure is 0.8444; as for WNAT, 0.8599. As to GNWT, the “MO[…]” value was 0.9409. Still for that read-out and setting: as for SNAT, the figure is 0.8383. Take MNVT: the “MO[…]” value is reported as 0.8374.

Turning to NNAT, the “MO[…]” value was determined as 0.7664.

Regarding SNIT, the “MO[…]” value came to 0.7453. Still for that read-out and setting: as for WNIS, the figure is 0.746; as for ENST, 0.6042. On the same count and under the same terms, then MNRT, with 0.6724; and LNVT, with 0.6724; and PNFT, with 0.8402. Take ANIS: the “MO[…]” value came out at 0.8694. Same read-out and setting: as for TNST, the figure is 0.6424. The same measure, in the same setting: then MNIS, with 0.5286.

The same experiment, now with this note: 6-mer sequences in GlycoSCORES peptide screens; 50 μM peptide, 2.5 mM UDP-Glc, 0.025 μM NGT for 1 h.
Take FANATT: the “glycosylation / modification efficiency” value is recorded as roughly 75%. Still for that read-out and setting: then YANATS, with roughly 36%.

Still in this experiment, the particulars now being: CFPS NGT, 50 μM peptide, 2.5 mM UDP-Glc, 30° C.
As for GGNWTT, the “modification by NGT in GlycoSCORES peptide screens” value is “more efficiently glycosylated than any previously studied”. The same measure, in the same setting: as for NHNETD, the entry is “no detectable modification”; as for GNWTRC, “among the most efficiently glycosylated sequences”. Still for that read-out and setting: as for YANATT, the entry is “efficiently modified”.

The record behind these values is patent US11898187B2 (priority 2017, dated 2024).
